Calls of active or inactive are those of the source. The calls are words filed in the database; no cut-off is given here.
Experiments:
HCC827 [1] = assay: Antiproliferative activity against human HCC827 cells harboring EGFRDel19 mutant assessed as reduction in cell viability incubated for 72 hrs by MTT assay; format: functional, cell-based; settings: HCC827, 72 h
A-431 = assay: Antiproliferative activity against human A-431 cells harboring EGFR assessed as reduction in cell viability incubated for 72 hrs by MTT assay; format: functional, cell-based; settings: A-431, 72 h
NCI-H1975 [2] = assay: Antiproliferative activity against human NCI-H1975 cells harboring EGFR L858/T790M mutant assessed as reduction in cell viability incubated for 72 hrs by MTT assay; format: functional, cell-based; settings: NCI-H1975, 72 h
[3] = (§1) Protac activity at E3 ubiquitin ligase/EGFR in human HCC827 cells assessed as increase in degradation of EGFR incubated for 48 hrs by Western blot analysis; format: cell-based; settings: HCC827, 48 h
HCC827 [4] = assay: as §1; format: cell-based
HCC827 [5] = assay: Induction of cell cycle arrest in human HCC827 cells assessed as accumulation in G1 phase at 0.1 uM incubated for 32 hrs by PI staining based flow cytometry analysis (reference value: 50.48 %); format: functional
HCC827 [6] = assay: Protac activity at E3 ubiquitin ligase/EGFR in human HCC827 cells assessed as increase in degradation of EGFR at 100 nM incubated for 72 hrs by Western blot analysis relative to control; format: cell-based
HCC827 [7] = assay: Induction of apoptosis in human HCC827 cells assessed as late apoptotic cells at 1 uM incubated for 32 hrs by annexin V-FITC and PI staining based flow cytometry analysis (reference value: 18.02%); format: functional
HCC827 [8] = assay: Induction of apoptosis in human HCC827 cells assessed as early apoptotic cells at 0.1 uM incubated for 32 hrs by annexin V-FITC and PI staining based flow cytometry analysis (reference value: 2.31 %); format: functional
HCC827 [9] = assay: Protac activity at E3 ubiquitin ligase/EGFR in human HCC827 cells assessed as increase in degradation of EGFR at 0.1 uM pretreated with (1-(6-(5-(4-(dimethylamino)piperidin-1-yl)pyridin-2-ylamino)-2-(4-fluorophenylamino)pyrido[3,4-d]pyrimidin-4-yl)piperidin-4-yl)methanol and incubated for 6 hrs followed by compound addition and measured after 32 hrs by Western blot analysis; format: cell-based
A549 [10] = assay: Antiproliferative activity against human A549 cells harboring EGFR assessed as reduction in cell viability incubated for 72 hrs by MTT assay; format: functional, cell-based; settings: A549, 72 h
HCC827 [11] = assay: Induction of apoptosis in human HCC827 cells assessed as necrotic cells at 1 uM incubated for 32 hrs by annexin V-FITC and PI staining based flow cytometry analysis (reference value: 7.12 %); format: functional
HCC827 [12] = assay: Induction of apoptosis in human HCC827 cells assessed as necrotic cells at 0.1 uM incubated for 32 hrs by annexin V-FITC and PI staining based flow cytometry analysis (reference value: 6.68 %); format: functional
HCC827 [13] = assay: Induction of cell cycle arrest in human HCC827 cells assessed as accumulation in G1 phase at 1 uM incubated for 32 hrs by PI staining based flow cytometry analysis (reference value: 50.48 %); format: functional
HCC827 [14] = assay: Induction of cell cycle arrest in human HCC827 cells assessed as accumulation in S phase at 0.1 uM incubated for 32 hrs by PI staining based flow cytometry analysis (reference value: 41.26 %); format: functional
HCC827 [15] = assay: Induction of apoptosis in human HCC827 cells assessed as early apoptotic cells at 1 uM incubated for 32 hrs by annexin V-FITC and PI staining based flow cytometry analysis (reference value: 2.72%); format: functional
HCC827 [16] = assay: Protac activity at E3 ubiquitin ligase/EGFR in human HCC827 cells assessed as increase in degradation of EGFR measured upto 96 hrs by Western blot analysis; format: cell-based; settings: time hrs <=96, TDE = time-dependent effect
HCC827 [17] = assay: Induction of apoptosis in human HCC827 cells assessed as viable cells at 0.1 uM incubated for 32 hrs by annexin V-FITC and PI staining based flow cytometry analysis (reference value: 76.79 %); format: functional; settings: read-out: Activity
HCC827 [18] = assay: Protac activity at E3 ubiquitin ligase/EGFR in human HCC827 cells assessed as increase in degradation of EGFR at 100 nM pretreated with VHL-L for 5 hrs followed by compound addition and measured after 32 hrs by Western blot analysis; format: cell-based
HCC827 [19] = assay: Induction of apoptosis in human HCC827 cells assessed as late apoptotic cells at 0.1 uM incubated for 32 hrs by annexin V-FITC and PI staining based flow cytometry analysis (reference value: 14.23 %); format: functional
HCC827 [20] = assay: Induction of cell cycle arrest in human HCC827 cells assessed as accumulation in S phase at 1 uM incubated for 32 hrs by PI staining based flow cytometry analysis (reference value: 41.26 %); format: functional
HCC827 [21] = assay: Protac activity at E3 ubiquitin ligase/EGFR in human HCC827 cells assessed as increase in degradation of EGFR at 1 to 10 uM pretreated with MG-132 for 6 hrs followed by compound addition and measured after 30 hrs by Western blot analysis; format: cell-based; settings: dose 1-10 µM
A549 [22] = assay: Protac activity at E3 ubiquitin ligase/EGFR in human A549 cells harboring wild type EGFR assessed as increase in degradation of EGFR at 0.1 to 10 uM incubated for 48 hrs by Western blot analysis; format: cell-based; settings: dose 0.1-10 µM
HCC827 [23] = assay: Induction of cell cycle arrest in human HCC827 cells assessed as accumulation in G2 phase at 0.1 uM incubated for 32 hrs by PI staining based flow cytometry analysis (reference value: 8.25 %); format: functional
HCC827 [24] = assay: Induction of apoptosis in human HCC827 cells assessed as viable cells at 1 uM incubated for 32 hrs by annexin V-FITC and PI staining based flow cytometry analysis (reference value: 72.15 %); format: functional; settings: read-out: Activity
HCC827 [25] = assay: Protac activity at E3 ubiquitin ligase/EGFR in human HCC827 cells assessed as increase in degradation of EGFR at 1 to 10 uM pretreated with MLN-4924 for 6 hrs followed by compound addition and measured after 30 hrs by Western blot analysis; format: cell-based; settings: dose 1-10 µM
[26] = biological target: Epidermal growth factor receptor (Homo sapiens) (UniProt P00533); assay: Inhibition of EGFR in human HCC827 cells assessed as reduction in EGFR phosphorylation incubated for 36 hrs by Western blot analysis; format: cell-based; settings: dose 0.1-1 µM
Sequence of Epidermal growth factor receptor (Homo sapiens) (P00533 whole entry): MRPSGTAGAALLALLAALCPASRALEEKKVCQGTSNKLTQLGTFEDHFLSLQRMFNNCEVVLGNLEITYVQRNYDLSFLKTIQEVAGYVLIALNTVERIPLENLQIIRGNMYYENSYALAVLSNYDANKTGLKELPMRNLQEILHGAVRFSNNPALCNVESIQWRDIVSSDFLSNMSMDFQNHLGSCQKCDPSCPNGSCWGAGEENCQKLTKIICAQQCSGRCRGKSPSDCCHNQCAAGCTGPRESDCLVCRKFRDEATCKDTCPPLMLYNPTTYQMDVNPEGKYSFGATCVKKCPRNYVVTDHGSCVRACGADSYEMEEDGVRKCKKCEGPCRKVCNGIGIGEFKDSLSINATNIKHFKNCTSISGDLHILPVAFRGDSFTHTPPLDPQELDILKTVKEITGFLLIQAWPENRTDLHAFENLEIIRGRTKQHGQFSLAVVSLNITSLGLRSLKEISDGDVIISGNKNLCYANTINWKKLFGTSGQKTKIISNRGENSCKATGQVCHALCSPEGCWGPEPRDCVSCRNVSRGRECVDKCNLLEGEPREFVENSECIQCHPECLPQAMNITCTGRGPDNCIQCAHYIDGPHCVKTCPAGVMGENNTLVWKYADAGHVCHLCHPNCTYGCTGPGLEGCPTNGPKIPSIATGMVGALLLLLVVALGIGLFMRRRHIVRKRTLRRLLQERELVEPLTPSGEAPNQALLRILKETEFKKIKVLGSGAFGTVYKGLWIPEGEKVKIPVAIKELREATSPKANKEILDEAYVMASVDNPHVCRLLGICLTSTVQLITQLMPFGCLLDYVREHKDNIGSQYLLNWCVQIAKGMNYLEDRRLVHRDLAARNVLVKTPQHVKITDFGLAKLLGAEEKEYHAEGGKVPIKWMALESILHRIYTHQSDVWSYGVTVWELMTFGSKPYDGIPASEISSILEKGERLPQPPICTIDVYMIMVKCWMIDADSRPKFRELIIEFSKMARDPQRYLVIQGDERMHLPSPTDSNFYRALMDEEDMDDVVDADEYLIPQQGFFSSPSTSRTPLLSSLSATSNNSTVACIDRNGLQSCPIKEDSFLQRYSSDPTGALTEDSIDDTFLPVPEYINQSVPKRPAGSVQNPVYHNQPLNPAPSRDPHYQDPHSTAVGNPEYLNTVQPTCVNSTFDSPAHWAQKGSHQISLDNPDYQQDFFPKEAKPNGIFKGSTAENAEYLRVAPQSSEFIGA

NCI-H1975 [27] = assay: Protac activity at E3 ubiquitin ligase/EGFR in human NCI-H1975 cells harboring EGFR T790M mutant assessed as increase in degradation of EGFR at 0.1 to 10 uM incubated for 48 hrs by Western blot analysis; format: cell-based; settings: dose 0.1-10 µM
HCC827 [28] = assay: Induction of cell cycle arrest in human HCC827 cells assessed as accumulation in G2 phase at 1 uM incubated for 32 hrs by PI staining based flow cytometry analysis (reference value: 8.25 %); format: functional
HCC827 [29] = assay: Protac activity at E3 ubiquitin ligase/EGFR in human HCC827 cells assessed as increase in degradation of EGFR at 100 nM incubated for 96 hrs by Western blot analysis relative to control; format: cell-based
HCC827 [30] = assay: Protac activity at E3 ubiquitin ligase/EGFR in human HCC827 cells assessed as increase in degradation of EGFR at 100 nM pretreated with lenalidomide for 2 hrs followed by compound addition and measured after 48 hrs by Western blot analysis; format: cell-based

Row | SMILES | IC50 (HCC827 [1]) | IC50 (A-431) | IC50 (NCI-H1975 [2]) | Activity (HCC827 [5]) | Activity (HCC827 [7]) | Activity (HCC827 [8]) | IC50 (A549 [10]) | Activity (HCC827 [11]) | Activity (HCC827 [12]) | Activity (HCC827 [13]) | Activity (HCC827 [14]) | Activity (HCC827 [15]) | viability at 0.1 µM (HCC827 [17]) | Activity (HCC827 [19]) | Activity (HCC827 [20]) | Activity (HCC827 [23]) | viability at 1 µM (HCC827 [24]) | Activity (HCC827 [28]) | further results
1 | O=C1CCC(N2Cc3c(NC(=O)CCCCN4CCN(c5ccc(Nc6cc7c(N8CCC(CO)CC8)nc(Nc8ccc(F)cc8)nc7cn6)nc5)CC4)cccc3C2=O)C(=O)N1 (configuration not stated) | > 10000 nM |  |  |  |  |  |  |  |  |  |  |  |  |  |  |  |  |  | 
2 | CN(C)C1CCN(c2ccc(Nc3cc4c(N5CCN(CC(=O)NCCC(=O)Nc6cccc7c6CN(C6CCC(=O)NC6=O)C7=O)CC5)nc(Nc5ccc(F)cc5)nc4cn3)nc2)CC1 (configuration not stated) | 4630 nM | > 10000 nM |  |  |  |  |  |  |  |  |  |  |  |  |  |  |  |  | 
3 | Cc1ncsc1-c1ccc(CNC(=O)[C@@H]2C[C@@H](O)CN2C(=O)[C@@H](NCCOCCOCCN2CCN(c3ccc(Nc4cc5c(N6CCC(CO)CC6)nc(Nc6ccc(F)cc6)nc5cn4)nc3)CC2)C(C)(C)C)cc1 | 340 nM | 2460 nM | 2970 nM |  |  |  |  |  |  |  |  |  |  |  |  |  |  |  | 
4 | Cc1ncsc1-c1ccc(CNC(=O)[C@@H]2C[C@@H](O)CN2C(=O)[C@@H](NC(=O)CCCCCCN2CCN(c3ccc(Nc4cc5c(N6CCC(CO)CC6)nc(Nc6ccc(F)cc6)nc5cn4)nc3)CC2)C(C)(C)C)cc1 | 220 nM | > 10000 nM | > 10000 nM | 81.94% | 63.29% | 7.95% | > 10000 nM | 9.9% | 6.62% | 83.15% | 11.67% | 4.36% | 59.7% | 25.73% | 7.99% | 6.39% | 22.4% | 8.86% | DC50 [3]: 34.8 nM; Activity (HCC827 [4]): Dose-dependent effect; Emax (HCC827 [6]): 98%; Activity (HCC827 [9]): inactive; Activity (HCC827 [16]): Tde; Activity (HCC827 [18]): inactive; Activity (HCC827 [21]): inactive; Activity (A549 [22]): Active; Activity (HCC827 [25]): Active; inhibition [26]: Dose-dependent effect; Activity (NCI-H1975 [27]): Active
5 | C=CC(=O)Nc1cc(Nc2nccc(-c3cn(C)c4ccccc34)n2)c(OC)cc1N(C)CCN(C)C [OSIMERTINIB] | 36 nM | […] | […] | 82.45% | 59.59% | 5.07% | 900 nM | 10.32% | 15.24% | 80.12% | 9.29% | 6.11% | 23.8% | 55.86% | 10.16% | 8.26% | 24% | 9.71% | 
6 | CN(C)C1CCN(c2ccc(Nc3cc4c(N5CCN(CCCCCCCC(=O)Nc6cccc7c6CN(C6CCC(=O)NC6=O)C7=O)CC5)nc(Nc5ccc(F)cc5)nc4cn3)nc2)CC1 (configuration not stated) | 1450 nM |  |  |  |  |  |  |  |  |  |  |  |  |  |  |  |  |  | 
7 | O=C1CCC(N2Cc3c(NC(=O)CCCCCCCN4CCN(c5ccc(Nc6cc7c(N8CCC(CO)CC8)nc(Nc8ccc(F)cc8)nc7cn6)nc5)CC4)cccc3C2=O)C(=O)N1 (configuration not stated) | 180 nM | > 10000 nM | > 10000 nM | 82.95% | 49.56% | 5.93% | > 10000 nM | 9.74% | 8.21% | 81.89% | 10.79% | 4.16% | 59.5% | 26.38% | 10.63% | 6.26% | 35.5% | 7.47% | DC50 [3]: 45.2 nM; Activity (HCC827 [4]): Dose-dependent effect; Activity (HCC827 [9]): inactive; Activity (HCC827 [16]): Tde; Emax (HCC827 [29]): 87%; Activity (HCC827 [21]): inactive; Activity (A549 [22]): Active; Activity (HCC827 [25]): Active; inhibition [26]: Dose-dependent effect; Activity (NCI-H1975 [27]): Active; Activity (HCC827 [30]): inactive
8 | Cc1ncsc1-c1ccc(CNC(=O)[C@@H]2C[C@@H](O)CN2C(=O)[C@@H](NCCOCCOCCn2cc(CN3CCN(c4ccc(Nc5cc6c(N7CCC(CO)CC7)nc(Nc7ccc(F)cc7)nc6cn5)nc4)CC3)nn2)C(C)(C)C)cc1 | 1760 nM | > 10000 nM | > 10000 nM |  |  |  | > 10000 nM |  |  |  |  |  |  |  |  |  |  |  | 
